From patent US4822800A (Ortho Pharmaceutical Corporation, priority 1986, dated 1989) come the findings set out here.

In experiment [1] the test system is adult mongrel dogs. Description: acute in vivo cardiotonic activity in anesthetized dogs. As to conditions: for change in vivo at 0.1 mg/kg / change in vivo at 1.875 mg/kg / change in vivo at 0.15 mg/kg / change in vivo at 0.375 mg/kg / change in vivo at 0.925 mg/kg: Canis lupus familiaris, cardiotonic, relative to controls; for change in vivo at 0.1 mg/kg: dose 0.100 mg/kg intravenous; for change in vivo at 1.875 mg/kg: dose 1.875 mg/kg intravenous; for cardiotonic activity (in words): summary of Table 4; for change in vivo at 0.15 mg/kg: dose 0.150 mg/kg intravenous; for change in vivo at 0.375 mg/kg: dose 0.375 mg/kg intravenous; for change in vivo at 0.925 mg/kg: dose 0.925 mg/kg intravenous. Also noted: species or system dog (adult mongrel). As for the experimental part: The acute in vivo cardiotonic activity of compounds prepared according to the present invention was determined according to a modification of the procedure described by Alousi et al., Circ. Res., 45, 666 (1979).
In particular, adult mongrel dogs were anesthetized with sodium pentobarbital and were artificially respired. Arterial pressure was monitored via a femoral artery, and the pulse pressure was used to trigger a cardiotachometer for heart rate. Left ventricular pressure was determined with a Millar catheter, and dP/dt (the change in ventricular pressure with time) was derived. Cardiac output was determined by measuring ascending aortic blood flow with an electromagnetic flow probe, and myocardial contractile force was measured with a Walton Brodie strain gauge sutured to the right ventricle. Lead II EKG was also recorded.
A standard dose (10 μg/kg/min) of dopamine was administered to assess myocardial responsiveness.
Compounds of the invention were administered by intravenous infusion or bolus […] administration, and the effects on cardiovascular parameters were determined.
Dose related effects of the test compound on blood pressure (BP), heart rate (HR), maximum change in left ventricular pressure with time (dP/dt max),% change in cardiac force (CF) and the increase in mean arterial blood pressure relative to controls (MABP) were compared to pretreatment control values, expressed as a% change and rated for activity.

Experiment [2] has as its target T1, Phosphodiesterase fraction III (Canis lupus familiaris, UniProt A0A8I3NYE0).
T1 construct: isolated as an isozyme from the crude canine heart homogenate; from tissue; host or cells: canine heart (crude homogenate, ion exchange chromatography, third and last PDE peak)
T1 sequence (A0A8I3NYE0 1-1135): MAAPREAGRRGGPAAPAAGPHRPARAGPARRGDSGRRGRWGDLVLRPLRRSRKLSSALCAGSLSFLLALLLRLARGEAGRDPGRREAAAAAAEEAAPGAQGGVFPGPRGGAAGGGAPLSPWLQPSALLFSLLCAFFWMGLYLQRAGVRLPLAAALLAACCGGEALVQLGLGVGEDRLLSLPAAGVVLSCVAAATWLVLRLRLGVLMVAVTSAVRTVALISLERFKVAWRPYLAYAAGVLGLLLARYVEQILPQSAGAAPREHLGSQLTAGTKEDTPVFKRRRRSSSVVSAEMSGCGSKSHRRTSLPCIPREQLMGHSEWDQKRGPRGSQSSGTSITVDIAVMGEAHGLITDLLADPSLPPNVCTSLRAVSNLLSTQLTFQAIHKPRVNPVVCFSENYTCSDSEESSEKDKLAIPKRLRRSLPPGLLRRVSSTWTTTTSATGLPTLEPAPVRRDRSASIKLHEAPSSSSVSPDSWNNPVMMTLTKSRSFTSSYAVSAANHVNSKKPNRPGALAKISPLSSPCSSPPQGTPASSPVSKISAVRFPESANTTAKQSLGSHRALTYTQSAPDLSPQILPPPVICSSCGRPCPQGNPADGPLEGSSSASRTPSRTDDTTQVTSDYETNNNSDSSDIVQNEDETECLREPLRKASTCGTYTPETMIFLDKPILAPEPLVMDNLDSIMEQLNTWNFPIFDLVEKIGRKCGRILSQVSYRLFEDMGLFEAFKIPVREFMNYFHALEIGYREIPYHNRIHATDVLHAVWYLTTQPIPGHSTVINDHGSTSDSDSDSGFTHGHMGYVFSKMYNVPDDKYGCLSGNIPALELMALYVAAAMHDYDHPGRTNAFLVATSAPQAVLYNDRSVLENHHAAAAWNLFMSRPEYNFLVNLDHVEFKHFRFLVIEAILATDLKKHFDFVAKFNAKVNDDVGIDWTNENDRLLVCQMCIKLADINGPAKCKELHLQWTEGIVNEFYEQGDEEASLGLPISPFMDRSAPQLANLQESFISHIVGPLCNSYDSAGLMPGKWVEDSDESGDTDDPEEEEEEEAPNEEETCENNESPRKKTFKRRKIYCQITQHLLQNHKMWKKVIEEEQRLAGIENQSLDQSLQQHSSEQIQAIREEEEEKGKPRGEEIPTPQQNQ
As to the kind of experiment: inhibition of phosphodiesterase fraction III activity. To be noted: for IC50: cyclic AMP 0.10-1.0 uM, pH 7.4, canine heart enzyme; for phosphodiesterase fraction III inhibition (in words): summary of Table 5. Format: biochemical, canine (heart).

The test system of experiment [3] is adult mongrel dogs. As to the kind of experiment: renal vasodilating activity in anesthetized dogs. Type of experiment: in vivo, dog (adult mongrel). To be noted: for change in vivo at 5 mg/kg / change in vivo at 0.2 mg/kg / change in vivo at 1.2 mg/kg: Canis lupus familiaris, renal vasodilator, relative to controls; for change in vivo at 5 mg/kg: dose 5.0 mg/kg intravenous; for renal vasodilating activity (in words): summary of Table 4; for change in vivo at 0.2 mg/kg: dose 0.2 mg/kg intravenous; for change in vivo at 1.2 mg/kg: dose 1.2 mg/kg intravenous. On the procedure:
Goldberg et al, J. Pharmacol. Exp. Ther., 163, 188 (1968), performed an investigation of the structural requirements for dopamine-like renal vasodilation of phenethylamines and apomorphine. The following procedure is a variation of the assay described in that report.
Adult mongrel dogs were anesthetized and surgically prepared for electromagnetic measurement of renal artery blood flow. A carotid artery was cannulated for measuring arterial blood pressure, and drugs were administered intravenously. Heart rate was monitored with a cardiotachometer. Renal vascular resistance was calculated as the ratio of mean arterial blood pressure/renal artery blood flow. Dopamine was infused intravenously at 3 μg/kg/min for ten minutes (at an infusion rate of about 1 ml/min) to determine responsiveness of each dog to renal dopamine receptor stimulation. Cumulative dose-response data were obtained by infusing a compound of this invention at progressively increasing (usually three-fold) infusion rates, each dose being infused for five minutes. The maximum % increase from pre-drug control in renal artery blood flow (or a decrease in renal vascular resistance) was determined for each infusion dose.
RBF values are percent change in renal blood flow. RVR values are percent change in renal vascular resistance. MABP and HR are percent changes in mean arterial blood pressure and heart rate, respectively, relative to controls.

Where [4] appears, read: read-out: MABP (mean arterial blood pressure).
Where [5] appears, read: read-out: dP/dt (maximum change left ventricular pressure with time).
[6] abbreviates: read-out: RBF (renal blood flow).
Where [7] appears, read: read-out: RVR (renal vascular resistance).

Structures are written as SMILES. Entries after “also recorded” stand apart in the source; their conditions may differ. Read-outs that look alike come from different tables or passages of the source.

On to `COc1cc2c(C)nc(O)c(C)c2cc1OC` [AB], for which the change in vivo at 0.1 mg/kg in the experiment with adult mongrel dogs [1] (read-out: CF (cardiac force)) is 80%; with adult mongrel dogs [1] (read-out: HR (heart rate)), 15%; in the experiment with adult mongrel dogs [1] (setting [4]) it was -4%; in the experiment on adult mongrel dogs [1] (setting [5]), 48%. Besides, in experiment [2], 8.3 µM corresponded to half-maximal inhibition (IC50). Besides, in experiment [2], the “phosphodiesterase fraction III inhibition (in words)” value is reported as “inhibit phosphodiesterase fraction III activity”.

Regarding `COc1cc2c(CCl)nc(O)c(Cl)c2cc1OC` [AD], the change in vivo at 1.875 mg/kg in the experiment with adult mongrel dogs [1] (read-out: CF (cardiac force)) was 111%; with adult mongrel dogs [1] (read-out: HR (heart rate)), 21%; with adult mongrel dogs [1] (setting [4]), -3%; in the experiment on adult mongrel dogs [1] (setting [5]), 106%. Further, in the experiment on adult mongrel dogs [1], the “cardiotonic activity (in words)” value is listed as “cardiotonic properties”. Moreover, in experiment [2], the IC50 was determined as 11 µM. In addition, the “phosphodiesterase fraction III inhibition (in words)” value in experiment [2] is given as “inhibit phosphodiesterase fraction III activity; also recorded: phosphodiesterase fraction III inhibiting properties”. Besides, the change in vivo at 5 mg/kg in the experiment with adult mongrel dogs [3] (setting [6]) was 16%; with adult mongrel dogs [3] (setting [7]), -32%. Further, in the experiment on adult mongrel dogs [3], the “renal vasodilating activity (in words)” value was “renal vasodilating properties”.

Consider `COc1cc2c(C)nc(O)c(C(C)C)c2cc1OC` [AF], for which the change in vivo at 0.15 mg/kg with adult mongrel dogs [1] (read-out: CF (cardiac force)) is 92%; in the experiment with adult mongrel dogs [1] (read-out: HR (heart rate)), 8%; in the experiment on adult mongrel dogs [1] (setting [4]) it was -15%; with adult mongrel dogs [1] (setting [5]), 60%. Moreover, the “cardiotonic activity (in words)” value with adult mongrel dogs [1] is listed as “cardiotonic properties”. In experiment [2], this compound gave a half-maximal inhibitory concentration (IC50) of 12.3 µM. In experiment [2], the “phosphodiesterase fraction III inhibition (in words)” value was “inhibit phosphodiesterase fraction III activity; also recorded: phosphodiesterase fraction III inhibiting properties”. Moreover, the change in vivo at 0.2 mg/kg in the experiment on adult mongrel dogs [3] (read-out: HR (heart rate)) was 28%; in the experiment on adult mongrel dogs [3] (setting [4]), -16%; in the experiment on adult mongrel dogs [3] (setting [6]) it was 11%; with adult mongrel dogs [3] (setting [7]), -24%. Moreover, the “renal vasodilating activity (in words)” value with adult mongrel dogs [3] is recorded as “renal vasodilating properties”.

`COc1cc(OC)c2c(C)nc(O)cc2c1` [AH]: the change in vivo at 0.375 mg/kg in the experiment on adult mongrel dogs [1] (read-out: CF (cardiac force)) is 50%; in the experiment on adult mongrel dogs [1] (read-out: HR (heart rate)) it was 6%; with adult mongrel dogs [1] (setting [4]), -3%; with adult mongrel dogs [1] (setting [5]), 46%. In experiment [2], the IC50 turned out to be 80 µM. Further, the change in vivo at 1.2 mg/kg with adult mongrel dogs [3] (read-out: HR (heart rate)) is 25%; in the experiment with adult mongrel dogs [3] (setting [4]), -6%; in the experiment with adult mongrel dogs [3] (setting [6]) it was 13%; with adult mongrel dogs [3] (setting [7]), -17%.

With `COc1ccc2c(C)nc(O)cc2c1` [AI], the change in vivo at 0.925 mg/kg amounted to 65% with adult mongrel dogs [1] (read-out: CF (cardiac force)), 8% in the experiment with adult mongrel dogs [1] (read-out: HR (heart rate)), 0% with adult mongrel dogs [1] (setting [4]) and 56% in the experiment with adult mongrel dogs [1] (setting [5]). The midpoint of inhibition in experiment [2], the IC50, lay at 160 µM. Also, the change in vivo at 1.2 mg/kg with adult mongrel dogs [3] (read-out: HR (heart rate)) is 4%; in the experiment with adult mongrel dogs [3] (setting [4]) it was -1%; in the experiment on adult mongrel dogs [3] (setting [6]), 7%; in the experiment on adult mongrel dogs [3] (setting [7]), -7%.

For the compound `CCCCOc1cc2c(C)nc(O)cc2cc1OC` [AL], the change in vivo at 0.375 mg/kg is 138% with adult mongrel dogs [1] (read-out: CF (cardiac force)), 22% in the experiment with adult mongrel dogs [1] (read-out: HR (heart rate)), -10% in the experiment on adult mongrel dogs [1] (setting [4]) and 46% in the experiment on adult mongrel dogs [1] (setting [5]). Further, the “cardiotonic activity (in words)” value in the experiment on adult mongrel dogs [1] is “cardiotonic properties”. Further, half-maximal inhibition in experiment [2] (IC50) was put at 37 µM. In addition, the “phosphodiesterase fraction III inhibition (in words)” value in experiment [2] is “inhibit phosphodiesterase fraction III activity; also recorded: phosphodiesterase fraction III inhibiting properties”. Besides, the change in vivo at 1.2 mg/kg in the experiment on adult mongrel dogs [3] (read-out: HR (heart rate)) was 9%; in the experiment on adult mongrel dogs [3] (setting [4]), -6%; in the experiment on adult mongrel dogs [3] (setting [6]), 13%; in the experiment with adult mongrel dogs [3] (setting [7]), -17%. In the experiment with adult mongrel dogs [3], the “renal vasodilating activity (in words)” value is listed as “renal vasodilating properties”.
